Data on four compounds can be found in patent US7384758B2, “Bioluminescent protease assay with modified aminoluciferin or derivatives thereof” (Promeaga Corporation, priority 2002, dated 2008).

Assay [1] has as its target T1, trypsin (Bos taurus, UniProt P00760).
T1 construct: gene PRSS1
T1 sequence (P00760 24-246): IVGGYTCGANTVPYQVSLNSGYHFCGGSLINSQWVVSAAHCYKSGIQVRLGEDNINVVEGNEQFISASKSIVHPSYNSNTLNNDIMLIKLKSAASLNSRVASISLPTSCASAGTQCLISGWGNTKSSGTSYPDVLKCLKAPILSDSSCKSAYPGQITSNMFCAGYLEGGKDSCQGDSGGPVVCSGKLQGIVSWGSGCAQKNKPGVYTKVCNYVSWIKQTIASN
The assay is described as follows: trypsin titration, homogeneous luminescent vs fluorescent substrate assay (Examples 1 and 2). The format is biochemical. To be noted: for limit of detection (trypsin): 3 S.D. above background noise, amount of trypsin. On the procedure: To compare the limit of detection for a luminescence-based and a fluorescence-based assay for trypsin, two substrates, Lys-aminoluciferin (Cbz-modified lysinyl-aminoluciferin) and Arg-Rho-110 (Molecular Probes, Catalog no. R6501), were used. Substrate was resuspended in 100 mM Hepes, pH 7.9, at a concentration of 10 mM and stored at −20° C. The thawed Lys-aminoluciferin substrate, thermostable luciferase (5.2 mg/ml stock), and ATP (0.1 M stock) were diluted in buffer (50 mM HEPES, pH 7.9, 10 mM MgSO4, 1 mM EDTA, pH 8.2 and 0.1% prionex) to make a stock that was 10× the final concentration. The 10× stock was 200 μM Lys-aminoluciferin, 200 μg/ml luciferase, and 2.0 mM ATP. This 10× stock was incubated for at least 90 minutes to eliminate any free aminoluciferin.
Trypsin was prepared for titration as follows: 1 μg/μl stock solution was diluted to 10 ng/50 μl in the same buffer as above (50 mM HEPES, pH 7.9, 10 mM MgSO4, 1 mM EDTA, pH 8.2 and 0.1% prionex). This […] trypsin solution was serially diluted 5 fold to 2 ng, 0.4 ng, 0.08 ng, 0.016 ng, 3.2 pg, 0.64 pg, 0.128 pg, 0.0256 pg and 0.005 pg. The trypsin dilutions were added to two 96-well plates in replicates of 8 at 50 μl per well. Pipette tips were changed for each row to avoid enzyme carryover. Two columns (16 wells) contained buffer only without trypsin.
One of the two plates of the trypsin dilutions was then used to test the Lys-aminoluciferin substrate (FIG. 3). Samples were tested in quadruplicate. The 10× substrate/luciferase/ATP mix was further diluted 5 fold in the above-described buffer to make a 2× stock. 50 μl of this 2× stock was added to each well containing 50 μl of the trypsin titration such that the final 100 μl volume contained 20 μM Lys-aminoluciferin, 200 μM ATP, and 20 μg/ml of thermostable luciferase in buffer (50 mM HEPES, pH 7.9, 10 mM MgSO4, 1 mM EDTA, pH 8.2 and 0.1% prionex). The substrate mix was also added to 12 of the 16 wells containing buffer only without trypsin. The remaining 4 wells were left with buffer only (no substrate mix). This plate was incubated at room temperature and read by luminometer at 45 minutes and 3 hours after adding the substrate mix to the trypsin.
The second plate of trypsin dilutions was used to test the Arg-Rho-110 substrate (FIG. 4). The Arg-Rho-110 substrate was tested at final concentrations of 10 μM and 2.5 μM. 2× stocks of 20 μM and 5 μM were prepared by diluting the substrate in 50 mM HEPES, pH 7.9, 10 mM MgSO4, 1 mM EDTA, pH 8.2 and 0.1% prionex. To each well of the plate containing 50 μl of the trypsin titration was added 50 μl of either the 20 μM or 5 μM 2× stocks of Arg-Rho-110 substrate. The 20 μM stock was added to the first four rows (final concentration of 10 μM in rows A-D) and the 5 μM stock was added to the second four rows (final concentration of 2.5 μM in rows E-H). The substrate mix was also added to 12 of the 16 wells containing buffer only without trypsin. The remaining 4 wells were left with buffer only (no substrate mix). The Arg-Rho-110 plate was incubated at room temperature in the dark for 4.5 hours and read on a fluorimeter.
The signal to noise was calculated as signal-background (no trypsin)/S.D. of background. The limit of detection was determined as 3 S.D. above background noise.
To determine the effect of an overnight pre-incubation of substrate with luciferase, ATP and buffer prior to adding trypsin, a substrate/luciferase/ATP mix was incubated overnight in the dark, at room temperature. […]

Assay [2] relates to thermostable firefly luciferase. The assay is described as follows: luminescent reaction with luciferin or aminoluciferin as luciferase substrate (FIG. 1). As to conditions: substrate for thermostable firefly luciferase, FIG. 1. The format is biochemical. The text has this: FIG. 1 depicts relative light units (RLU) for luciferin or aminoluciferin as a substrate for a thermostable firefly luciferase in a luminescent reaction.

Assay [3] deals with T2, caspase 3 (Homo sapiens, UniProt P42574).
T2 construct: approximately 10 mU/ng protein with >75% in active conformation; purchased Upstate Biotech 14-264
T2 sequence (P42574 29-175 limits assumed): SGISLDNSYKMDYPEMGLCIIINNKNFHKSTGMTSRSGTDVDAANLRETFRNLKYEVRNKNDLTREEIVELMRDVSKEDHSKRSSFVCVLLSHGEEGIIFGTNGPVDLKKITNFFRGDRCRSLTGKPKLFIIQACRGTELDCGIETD
T2 sequence (P42574 176-277 limits assumed): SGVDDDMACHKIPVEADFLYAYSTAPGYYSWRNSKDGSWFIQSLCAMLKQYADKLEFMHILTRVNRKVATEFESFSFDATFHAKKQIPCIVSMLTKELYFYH
The assay can be described thus: caspase titration, luminescent vs fluorescent substrate in Apo-ONE buffer (Example 3). The format is biochemical. On the procedure:
To conduct a direct comparison between luminescent and fluorescent substrates for caspase 3, DEVD-Rho-110 and DEVD-aminoluciferin were employed. The DEVD-aminoluciferin substrate/luciferase/ATP mixture was prepared first and preincubated prior to the enzyme assay to eliminate free aminoluciferin. To 1.25 ml of Apo-ONE™ buffer (Promega) was added 10 μl of DEVD-luciferin (10 mM stock), 10 μl of ATP (0.1 M stock), 50 μl of MgSO4 (1 M stock), 50 μl of prionex (10% stock), and 48 μl of luciferase (5.2 mg/ml stock). The volume was brought up to 2.5 ml with nanopure, autoclaved water to make a 2× stock of 40 μM DEVD-luciferin, 400 μM ATP, 0.2% prionex, and 100 μg/ml luciferase. This stock was incubated overnight at room temperature.
Caspase (Upstate Biotech, Cat. No.14-264; approximately 10 mU/ng protein with >75% in active conformation) was diluted 550 fold in a 50/50 mixture of Apo-ONE™ buffer/RPMI-1640 culture media, from 1 U/μl to 1.8 mU/μl. 50 μl of Apo-One™ buffer/RPMI-1640 media was added to each well in two 96-well plates. Then, 5.5 μl of the caspase stock was added to the 50 μL of Apo-One™ buffer/RPMI-1640 media for a concentration of about 10 mU/50 μl. Ten serial dilutions of 10 fold each were carried out in the wells by serially transferring 5.5 μl of caspase solution into the 50 μl of the buffer/media mix. The final caspase concentrations were 10 mU, 1 mU, 0.1 mU, 0.01 mU, 0.001 mU, 0.1 μU, 0.01 μU, 0.001 μU, 0.1 nU, and 0.01 nU/well. The last two columns were buffer/media only without caspase.
To one plate of caspase dilutions, 50 μl of the DEVD-aminoluciferin substrate mixture was added to each well for final concentrations of 20 μM DEVD-aminoluciferin, 200 μM ATP, 10 mM MgSO4, 0.1% prionex, and 50 μg/ml luciferase. […] Readings were taken for each plate at 1 hour, 3 hours, and 5 hours on a luminometer and fluorimeter, respectively.
Signal to noise was calculated as above and the limit of detection was determined as 3 S.D. above the background noise.

For assay [4], the system named is Jurkat cells. The assay is described as follows: caspase activity in Jurkat cells induced to undergo apoptosis with anti-FAS antibody (Example 4). The format is cell-based. As to conditions: for sensitivity greater than the Arg-Rho110: Jurkat cells, FIG. 11. As for the experimental part: The DEVD-aminoluciferin caspase substrate and the DEVD-Rho-110 caspase substrate were used to measure caspase activity in Jurkat cells induced to undergo apoptosis with anti-FAS antibody. DEVD-luciferin and luciferase were prepared for pre-incubation prior to use in the assay. Substrate, ATP, MgSO4, prionex and luciferase were diluted from the same stock as in Example 3 to the same 2× concentration, except that the components were diluted in autoclaved water rather than Apo-ONE™. This mixture was incubated overnight in the dark (covered in foil).
The next day, Jurkat cells, grown in RPMI-1640 media with 10% Fetal Bovine Serum (FBS) to a density of 5×10^5 cells/ml, were treated with anti-FAS antibody. To one vial of 8 ml of media was added 1.6 μl of antibody (1:5000 dilution); a second vial contained 8 ml of media and no antibody. Cells were incubated for 4 hours at 37° C., in 5% CO2 Cells were then centrifuged and resuspended in 12.5 ml of RPMI-1640 to a density of 3.2×10^5 cells/ml, then diluted 1:1 with Apo-ONE™ buffer for 1.6×10^5 cells/ml, or 8,000 per 50 μl.
Two 96-well plates were prepared such that on each, the first column was left empty, and 50 μl of RPMI-1640:Apo-ONE™ solution was placed in each of the remaining wells. To the first four rows of each plate, […] of the “induced” cell solution (8,000 cells) was added and the cells then serially diluted from 8,000 cells/well, to 4,000 cells/well and so on, down to 7.8 cells/well. The twelfth column was left without cells and with only 50 μl of RPMI-1640:Apo-ONE™ solution. […]
Signal to noise was calculated (signal minus background (no cell control)/S.D. of background) and the limit of detection was determined as 3 S.D. above the background noise.
One of the two plates was treated with 50 μl of either DEVD-aminoluciferin/luciferase mix or with DEVD-Rho-110/Apo-ONE™ (Promega G778B and G777B). Each plate was mixed on a plate shaker for 30 seconds then incubated at room temperature and read on either a Dynex luminometer or Fluoroskan plate reader at 1 hour, 2 hours, 4 hours and one day later.

Values joined by “and” are separate entries in the source; they are usually repeats but may differ in a detail not shown here. Identical values can stand only once.

`N=C(N)NCCCC(NC(=O)OCc1ccccc1)C(=O)Nc1ccc2c(c1)Oc1cc(NC(=O)C(CCCNC(=N)N)NC(=O)OCc3ccccc3)ccc1C21OC(=O)c2ccccc21` (stereo not drawn) [Arg-Rho-110, reference compound]: the “limit of detection (trypsin)” value in assay [1] and in assay [1] (listed as arginine2-rhodamine-110) was 12 to 30 pg in each case.
For the compound `O=C(O)[C@H]1CSC(c2nc3ccc(O)cc3s2)=N1` [luciferin], in assay [2], the Km is about 600 nM.
Take “Cbz-modified lysinyl-aminoluciferin [Lys-aminoluciferin]”: the “limit of detection (trypsin)” value in assay [1] was determined as 3.0 pg. The “sensitivity greater than Arg-Rho-110” value in assay [1] (depending on the time of the reading, FIG. 9) is 3-10 fold and 3 to 10 fold. In addition, the “less enzyme detected / more sensitive than fluorescence-based assay” value in assay [1] (luminescent vs rhodamine-110 trypsin substrate) was 4-10 times.
On to “N-(Z-Asp-Glu-Val-Asp)-aminoluciferin [DEVD-aminoluciferin]”, for which the “more sensitive than DEVD-Rho-110” value in assay [3] (FIG. 10, Example 3) is 10-100 times. Also, the “sensitivity greater than the Arg-Rho110” value in assay [3] (depending on the time of the readings, FIG. 10) was 50-300 fold; in assay [4] (1 hour time point), 10 fold; in assay [4] (at 4 hours), “about 2 fold”. Further, the “limit of detection (purified caspase)” value in assay [3] (substrate for caspase 3 and 7, purified caspase, 3 S.D. above background) was 0.2 to 0.5 μU. Moreover, in assay [4] (at 1 hour), the “limit of detection of caspase expressing cells” value is 15 cells.
